According to paper PMC10548421, “Anticancer Potential of Diruthenium Complexes with Bridging Hydrocarbyl Ligands from Bioactive Alkynols” (Inorganic Chemistry, 2023):

Legend:
[1] = tested on: MCF-7 breast adenocarcinoma cell line; experiment: MTT in vitro cytotoxicity, MCF-7; assay type: cell-based, human; details: incubation 24 h, mean ± SD
Description: (§1) The cytotoxicity assessment was conducted on various human cancer cell lines, including A2780 ovarian carcinoma, A2780R cisplatin-resistant ovarian carcinoma, MCF-7 breast, HOS osteosarcoma, A549 epithelial lung, PANC-1 pancreatic, Caco-2 colorectal, PC-3 prostate adenocarcinoma, and HeLa cervical cell lines. Additionally, the assessment extended to a normal human fetal fibroblast cell line (MRC-5). Cells were obtained from ATCC collection and cultivated according to the producer’s instructions. Stock solutions of the compounds were prepared in DMF immediately before application, and diluted with H2O to achieve the final concentration of 0.1% v/v DMF.[99] The culture media were enriched with 10% fetal calf serum. Subsequently, the cells were exposed to the tested compounds, vehicle (0.1% v/v DMF) and Triton X-100 (1% v/v), during incubation. The conventional MTT assay was carried out following different incubation periods (Tables 5-6). The absorbance was measured at 570 nm by using a spectrophotometer (Infinite M200, Schoeller Instruments, Prague, Czech Republic). The obtained data are presented as the percentage of cell viability with 100% representing negative control treatment (0.1% v/v DMF) and 0% representing the positive control (Triton X-100). The half-maximal inhibitory concentrations (IC50) were determined from dose–response curves using GraphPad Prism 6 software (GraphPad Software, San Diego, USA).

[2] = tested on: HeLa human cervical carcinoma cell line; experiment: MTT in vitro cytotoxicity, HeLa; assay type: cell-based; details: incubation 24 h, mean ± SD
Description: as §1

A2780 cells [3] = experiment: Mitochondrial membrane potential analysis (MITO-ID); assay type: cell-based, human; details: A2780, complexes 4 μM, cisplatin 15 μM, 24 h
Description: (§2) The A2780 ovarian carcinoma cell line was received from Merck (reference 93112519–1VL) and cultured at 37 °C in an environment with 5% CO2. The cultivation was carried out in complete cell culture medium (RPMI-1640 medium, Merck), which was supplemented with 10% fetal bovine serum (FBS, Merck), 1% L-glutamine (Merck) and 1% penicillin–streptomycin–neomycin (PSN, Merck). For the flow cytometry experiments, three independent duplicates were analyzed using a BD FACSVerse flow cytometer (Becton Dickinson, USA). At least 5 × 10^3 events were recorded for each sample. The same procedure was replicated for the experiments described below. Solutions of the complexes were formulated using the stock solutions (Section 5.1).
To investigate the effects on mitochondrial membrane potential of A2780 cells, an MITO-ID Membrane potential detection kit (Enzo Life Sciences, USA) was used. Cells were seeded in a 24-well (5 × 10^4 cells/well), and then incubated with 4 μM solution of complexes for 24 h. The supernatant was collected, cells were washed with warm PBS, detached using 0.25% trypsin-EDTA (Gibco) and resuspended in a cell culture medium. Then, samples were stained with diluted MITO-ID MP Detection Reagent (according to the protocol) at RT for 15 min, prior to flow cytometry analysis. A positive control was established by treating the samples with 2 μM carbonyl cyanide 3-chlorophenylhydrazone.

[4] = molecular target: bovine serum albumin (BSA) (Bos taurus, UniProt P02769); experiment: Interaction with BSA (MALDI-TOF MS); assay type: binding; details: BSA 30 μM, complex 1 mM, 48 h at 37 °C
Description: Bovine serum albumin (BSA, 30 μM in 50 mM NH4HCO3) was incubated with the selected complexes (3a or 3b, 1 mM) at 37 °C for 48 h. Each complex was preliminarily dissolved in 50 μL of methanol. Following the incubation, an aliquot of the protein was adsorbed by repeated aspiration and release (20 times, 10-μL volume) into a ZipTip-C4 pipet tip (Merck, Darmstadt, Germany) that had been pre-equilibrated in 0.1% trifluoroacetic acid (TFA), washed by the equilibrating solution, and eluted into 10 μL of 70% acetonitrile containing 0.1% TFA. The eluate was subsequently subjected to evaporation using a vacuum centrifuge, and the residue was dissolved in 3 μL of 0.1% TFA. A 1 μL aliquot of this solution was deposited on an MSP Big Anchor 96 target plate (Bruker Daltonik, Bremen, Germany), onto which 1 μL of the matrix solution (sinapinic acid, 12 mg/mL in 0.1% TFA and 50% acetonitrile) was immediately superimposed. The sample was then allowed to dry. Mass spectra were acquired using a Microflex LRF20 MALDI-TOF mass spectrometer operated in a linear positive ion mode and controlled using flexControl 3.4 software from Bruker Daltonik). Protein Standard II, from Bruker Daltonik, was used for external calibration. All spectra were subjected to processing by using flexAnalysis 3.4 software from Bruker Daltonik.

[5] = tested on: Caco-2 human colorectal adenocarcinoma cell line; experiment: MTT in vitro cytotoxicity, Caco-2; assay type: cell-based; details: incubation 24 h, mean ± SD
Description: as §1, with “Additionally,” for “The cytotoxicity assessment was conducted on various human cancer cell lines, including A2780 ovarian carcinoma, A2780R cisplatin-resistant ovarian carcinoma, MCF-7 breast, HOS osteosarcoma, A549 epithelial lung, PANC-1 pancreatic, Caco-2 colorectal, PC-3 prostate adenocarcinoma, and HeLa cervical cell lines. Additionally,”

A2780 cells [6] = experiment: Autophagy analysis (CYTO-ID); assay type: cell-based, human; details: A2780, complexes 4 μM, cisplatin 15 μM, 24 h
Description: as §2
The potential induction of autophagy by 3a and 3b in A2780 cells was studied with the kit CYTO-ID Autophagy Detection 2.0 (from Enzo Life Sciences, USA), following the protocol provided by the manufacturer. […] The supernatant was collected, cells were washed with warm PBS, detached using 0.25% trypsin-EDTA (Gibco) and resuspended in a cell culture medium. Diluted CYTO-ID Green stain solution (according to the protocol) was used to stain the samples. Following incubation for 30 min in a light-protected environment, the samples were washed with PBS (phosphate-buffered saline). Subsequently, a flow cytometry experiment was conducted. A mixture of chloroquine (10 μM) and rapamycin (0.5 μM) was used as positive control.

[7] = Stability in DMEM/CH3OH solution (UV–vis); assay type: physicochemical; details: ca. 5:1 v/v
Description: […] The percentage of remaining complex in the solution was calculated by considering the change in absorbance at the characteristic wavelength. The identical procedure was employed to evaluate stability in MeOH and DMEM (about 1:5 v/v) solutions. DMEM stands for the cell culture medium (containing 1000 mg/L glucose and L-glutamine, excluding sodium bicarbonate and phenol red; reference D2902-Merck).

[8] = tested on: A2780R cisplatin-resistant human ovarian carcinoma cell line; experiment: MTT in vitro cytotoxicity, A2780R; assay type: cell-based; details: incubation 24 h, mean ± SD
Description: as §1

Chain of bovine serum albumin (BSA) (P02769 25-607): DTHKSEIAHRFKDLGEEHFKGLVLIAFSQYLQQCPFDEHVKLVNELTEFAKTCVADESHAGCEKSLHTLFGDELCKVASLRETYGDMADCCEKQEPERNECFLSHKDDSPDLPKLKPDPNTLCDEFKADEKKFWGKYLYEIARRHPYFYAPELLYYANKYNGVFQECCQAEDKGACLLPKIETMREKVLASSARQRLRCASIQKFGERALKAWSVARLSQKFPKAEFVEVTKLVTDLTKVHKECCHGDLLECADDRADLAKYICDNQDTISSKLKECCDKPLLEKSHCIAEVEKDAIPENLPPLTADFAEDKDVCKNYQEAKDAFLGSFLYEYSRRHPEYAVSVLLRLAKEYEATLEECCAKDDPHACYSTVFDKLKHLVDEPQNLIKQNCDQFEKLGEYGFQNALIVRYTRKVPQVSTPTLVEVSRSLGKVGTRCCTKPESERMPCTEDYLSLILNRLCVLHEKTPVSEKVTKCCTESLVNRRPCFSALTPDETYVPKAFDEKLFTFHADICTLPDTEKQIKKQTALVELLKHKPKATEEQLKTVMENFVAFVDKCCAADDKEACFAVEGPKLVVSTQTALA

Compound | IC50 [1] [µM] | IC50 [2] [µM] | cell count with damaged mitochondrial membranes (in words) (A2780 cells [3]) | mass variation of adduct with respect to BSA [4] [Da] | IC50 [5] [µM] | autophagy level (in words) (A2780 cells [6]) | residual complex % in DMEM/CH3OH ([7]; 2 h) [%] | residual complex % in DMEM/CH3OH ([7]; 18 h) [%] | IC50 [8] [µM]
CC12CCC3c4ccc(O)cc4CCC3C1CCC2=C=[CH][Ru]1(=[C]=O)([CH]2C=CC=C2)[C](=O)[Ru+]1(=[C]=O)[CH]1C=CC=C1.F[B-](F)(F)F (mixture of isomers) [3b, [Ru2Cp2(CO)3{μ–η^1:η^2-CH=C=(estradiolylidene)}]BF4] | 11.6 ± 1.5 | 12.5 ± 1.1 | notable augmentation | 483 | 36 ± 2.7 | only moderately | 88 | 42 | 4.6 ± 1.3
F[B-](F)(F)F.O=[C]=[Ru+]1([CH]2C=CC=C2)[C](=O)[Ru]1(=[C]=O)([CH]=C=C1CCCC1)[CH]1C=CC=C1 (stereo not drawn) [3a, [Ru2Cp2(CO)3{μ–η^1:η^2-CH=C=(cyclopentylidene)}]BF4] | 16.2 ± 1.7 | 17.5 ± 2.9 | notable augmentation | 3434 | > 50 | not appreciable | 94 | 12 | 6.4 ± 1.9
